Laboratory results: ChEMBL document CHEMBL3885861, “Open TG-GATES”

Species: Rattus norvegicus
Assay: Open TG-GATES - Regimen: Daily Repeat
Type: toxicity, organism-based, Sprague-Dawley
Parameters: regimen Daily Repeat, gender Male, age 6 weeks
Conditions: in vivo, po, 200 mg/kg, route gavage, dose level High; for APTT / Bas / Eos / Fbg / Hb / Ht / Lym / MCH / MCHC / MCV / Mono / Neu / PT / Plat / RBC / Ret / WBC: tissue Blood; for KIDNEY_L / KIDNEY_R / KIDNEY_TOTAL: tissue Kidney; for LIVER: tissue Liver; for A/G / ALP / ALT / AST / BUN / CRE / Ca / Cl / DBIL / GLC / IP / K / LDH / Na / PL / RALB / TBIL / TC / TG / TP / gamma-GTP: tissue Plasma

With `CC(CN1c2ccccc2Sc2ccccc21)N(C)C` (configuration not stated) [PROMETHAZINE] the TERMINAL_BW (72 h, time 3 day) was 194.8 g, the APTT (72 h, time 3 day) was 23.9 s and the Bas (72 h, time 3 day) was 0%. The Eos (72 h, time 3 day) was 0.8%, the Fbg (72 h, time 3 day) was 333.2 mg/dL and the Hb (72 h, time 3 day) was 15 g/dL. For the same compound, the Ht (72 h, time 3 day) was 44.4%, the Lym (72 h, time 3 day) was 74.6% and the MCH (72 h, time 3 day) was 20.7 pg. For the same compound, the MCHC (72 h, time 3 day) was 33.7%, the MCV (72 h, time 3 day) was 61.6 fL and the Mono (72 h, time 3 day) was 2.8%. It also gave a Neu (72 h, time 3 day) of 21%, a PT (72 h, time 3 day) of 16.6 s and a Plat (72 h, time 3 day) of 130.8 x10_4/uL. For the same compound, the RBC (72 h, time 3 day) was 722.2 x10_4/ul, the Ret (72 h, time 3 day) was 4.2% and the WBC (72 h, time 3 day) was 73 x10_2/uL. The KIDNEY_L (72 h, time 3 day) was 0.9 g, the KIDNEY_R (72 h, time 3 day) was 0.9 g and the KIDNEY_TOTAL (72 h, time 3 day) was 1.8 g. For the same compound, the LIVER (72 h, time 3 day) was 10 g, the A/G (72 h, time 3 day) was 1.3 and the ALP (72 h, time 3 day) was 1369.6 IU/L. It also gave an ALT (72 h, time 3 day) of 46.8 IU/L, an AST (72 h, time 3 day) of 69.2 IU/L and a BUN (72 h, time 3 day) of 14.8 mg/dL. It also gave a CRE (72 h, time 3 day) of 0.2 mg/dL, a Ca (72 h, time 3 day) of 10.2 mg/dL and a Cl (72 h, time 3 day) of 107.2 meq/L. For the same compound, the DBIL (72 h, time 3 day) was 0.08 mg/dL, the GLC (72 h, time 3 day) was 174.6 mg/dL and the IP (72 h, time 3 day) was 8.3 mg/dL. It also gave a K (72 h, time 3 day) of 4.3 meq/L, an LDH (72 h, time 3 day) of 204.6 IU/L and a Na (72 h, time 3 day) of 142.4 meq/L. It also gave a PL (72 h, time 3 day) of 159.4 mg/dL, an RALB (72 h, time 3 day) of 3.2 g/dL and a TBIL (72 h, time 3 day) of 0.024 mg/dL. The TC (72 h, time 3 day) was 98.6 mg/dL, the TG (72 h, time 3 day) was 75.6 mg/dL and the TP (72 h, time 3 day) was 5.8 g/dL. The gamma-GTP (72 h, time 3 day) was 1.4 IU/L, the TERMINAL_BW ([…], time 7 day) was 231 g and the TERMINAL_BW ([…], time 14 day) was 258.5 g. The TERMINAL_BW ([…], time 28 day) was 339.7 g, the APTT ([…], time 7 day) was 23.3 s and the Bas ([…], time 7 day) was 0%. For the same compound, the Eos ([…], time 7 day) was 1%, the Fbg ([…], time 7 day) was 306.2 mg/dL and the Hb ([…], time 7 day) was 14.1 g/dL. It also gave a Ht ([…], time 7 day) of 42.2%, a Lym ([…], time 7 day) of 76.4% and an MCH ([…], time 7 day) of 19.7 pg. It also gave an MCHC ([…], time 7 day) of 33.4%, an MCV ([…], time 7 day) of 59.1 fL and a Mono ([…], time 7 day) of 3.2%. It also gave a Neu ([…], time 7 day) of 18.6%, a PT ([…], time 7 day) of 15.9 s and a Plat ([…], time 7 day) of 115.2 x10_4/uL. It also gave an RBC ([…], time 7 day) of 714.2 x10_4/ul, a Ret ([…], time 7 day) of 3.9% and a WBC ([…], time 7 day) of 129.8 x10_2/uL. The APTT ([…], time 14 day) was 22.6 s, the Bas ([…], time 14 day) was 0% and the Eos ([…], time 14 day) was 1%. The Fbg ([…], time 14 day) was 369.4 mg/dL, the Hb ([…], time 14 day) was 15 g/dL and the Ht ([…], time 14 day) was 43.8%. It also gave a Lym ([…], time 14 day) of 70.4%, an MCH ([…], time 14 day) of 19.7 pg and an MCHC ([…], time 14 day) of 34.2%. It also gave an MCV ([…], time 14 day) of 57.4 fL, a Mono ([…], time 14 day) of 3.2% and a Neu ([…], time 14 day) of 24.6%. It also gave a PT ([…], time 14 day) of 16.1 s, a Plat ([…], time 14 day) of 120.6 x10_4/uL and an RBC ([…], time 14 day) of 763.2 x10_4/ul. For the same compound, the Ret ([…], time 14 day) was 4%, the WBC ([…], time 14 day) was 105 x10_2/uL and the APTT ([…], time 28 day) was 23.6 s. For the same compound, the Bas ([…], time 28 day) was 0%, the Eos ([…], time 28 day) was 1% and the Fbg ([…], time 28 day) was 316.4 mg/dL. The Hb ([…], time 28 day) was 15.3 g/dL, the Ht ([…], time 28 day) was 43.5% and the Lym ([…], time 28 day) was 71.6%. The MCH ([…], time 28 day) was 19.3 pg, the MCHC ([…], time 28 day) was 35.1% and the MCV ([…], time 28 day) was 55.1 fL. For the same compound, the Mono ([…], time 28 day) was 3%, the Neu ([…], time 28 day) was 23.4% and the PT ([…], time 28 day) was 16.4 s. For the same compound, the Plat ([…], time 28 day) was 108 x10_4/uL, the RBC ([…], time 28 day) was 791.6 x10_4/ul and the Ret ([…], time 28 day) was 3.3%. For the same compound, the WBC ([…], time 28 day) was 135.4 x10_2/uL, the KIDNEY_L ([…], time 7 day) was 1 g and the KIDNEY_R ([…], time 7 day) was 1.1 g. It also gave a KIDNEY_TOTAL ([…], time 7 day) of 2.1 g, a KIDNEY_L ([…], time 14 day) of 1.1 g and a KIDNEY_R ([…], time 14 day) of 1.1 g. It also gave a KIDNEY_TOTAL ([…], time 14 day) of 2.2 g, a KIDNEY_L ([…], time 28 day) of 1.3 g and a KIDNEY_R ([…], time 28 day) of 1.3 g. It also gave a KIDNEY_TOTAL ([…], time 28 day) of 2.6 g, an LIVER ([…], time 7 day) of 14.7 g and an LIVER ([…], time 14 day) of 15.1 g. It also gave an LIVER ([…], time 28 day) of 21.1 g, an A/G ([…], time 7 day) of 1.1 and an ALP ([…], time 7 day) of 1435.2 IU/L. For the same compound, the ALT ([…], time 7 day) was 56.4 IU/L, the AST ([…], time 7 day) was 75.4 IU/L and the BUN ([…], time 7 day) was 19.6 mg/dL. The CRE ([…], time 7 day) was 0.2 mg/dL, the Ca ([…], time 7 day) was 10.9 mg/dL and the Cl ([…], time 7 day) was 104.8 meq/L. For the same compound, the DBIL ([…], time 7 day) was 0.004 mg/dL, the GLC ([…], time 7 day) was 179.4 mg/dL and the IP ([…], time 7 day) was 7.8 mg/dL. The K ([…], time 7 day) was 4.5 meq/L, the LDH ([…], time 7 day) was 167.8 IU/L and the Na ([…], time 7 day) was 142 meq/L. The PL ([…], time 7 day) was 170.6 mg/dL, the RALB ([…], time 7 day) was 3 g/dL and the TBIL ([…], time 7 day) was 0.008 mg/dL. For the same compound, the TC ([…], time 7 day) was 84.8 mg/dL, the TG ([…], time 7 day) was 127 mg/dL and the TP ([…], time 7 day) was 5.7 g/dL. It also gave a gamma-GTP ([…], time 7 day) of 2.8 IU/L, an A/G ([…], time 14 day) of 1 and an ALP ([…], time 14 day) of 1417 IU/L. The ALT ([…], time 14 day) was 53.6 IU/L, the AST ([…], time 14 day) was 73.8 IU/L and the BUN ([…], time 14 day) was 20.6 mg/dL. For the same compound, the CRE ([…], time 14 day) was 0.2 mg/dL, the Ca ([…], time 14 day) was 11 mg/dL and the Cl ([…], time 14 day) was 103.2 meq/L. The DBIL ([…], time 14 day) was 0.014 mg/dL, the GLC ([…], time 14 day) was 184.6 mg/dL and the IP ([…], time 14 day) was 8 mg/dL. The K ([…], time 14 day) was 4.2 meq/L, the LDH ([…], time 14 day) was 249 IU/L and the Na ([…], time 14 day) was 143.4 meq/L. For the same compound, the PL ([…], time 14 day) was 182.4 mg/dL, the RALB ([…], time 14 day) was 3.1 g/dL and the TBIL ([…], time 14 day) was 0.018 mg/dL. For the same compound, the TC ([…], time 14 day) was 99 mg/dL, the TG ([…], time 14 day) was 117.2 mg/dL and the TP ([…], time 14 day) was 6.1 g/dL. It also gave a gamma-GTP ([…], time 14 day) of 3.4 IU/L, an A/G ([…], time 28 day) of 1 and an ALP ([…], time 28 day) of 1191.4 IU/L. It also gave an ALT ([…], time 28 day) of 54.6 IU/L, an AST ([…], time 28 day) of 66 IU/L and a BUN ([…], time 28 day) of 21.2 mg/dL. It also gave a CRE ([…], time 28 day) of 0.2 mg/dL, a Ca ([…], time 28 day) of 10.8 mg/dL and a Cl ([…], time 28 day) of 104.2 meq/L. The DBIL ([…], time 28 day) was 0.008 mg/dL, the GLC ([…], time 28 day) was 175.2 mg/dL and the IP ([…], time 28 day) was 6.8 mg/dL. For the same compound, the K ([…], time 28 day) was 4.1 meq/L, the LDH ([…], time 28 day) was 146 IU/L and the Na ([…], time 28 day) was 142.8 meq/L. It also gave a PL ([…], time 28 day) of 211.4 mg/dL, an RALB ([…], time 28 day) of 3.2 g/dL and a TBIL ([…], time 28 day) of 0.02 mg/dL. For the same compound, the TC ([…], time 28 day) was 116.8 mg/dL, the TG ([…], time 28 day) was 136.6 mg/dL and the TP ([…], time 28 day) was 6.3 g/dL. It also gave a gamma-GTP ([…], time 28 day) of 4.2 IU/L.
